{"source": "patent US5677341A", "about": "“Emulsion suitable for administering a sphingolipid” (priority 1996, dated 1997)", "key": {"[1]": {"experiment": "acute toxicity on administration in the emulsion (infusion)", "format": "in vivo", "conditions": "120 mg per square meter, diluted to about 0.5 mg/ml in 5% dextrose, approximately one hour co-infusion with cisplatin or doxorubicin", "experimental": "(§1) The presently recommended dose of safingol, administered in the formulation described by the present invention, is 120 mg per square meter body surface or about 200 mg for a typical adult patient. A sterile emulsion is first diluted to a convenient drug concentration (typically about 0.5 mg/ml) using 5% dextrose for injection. A standard chemotherapeutic agent, such as cisplatin or doxorubicin, is co-infused with safingol over approximately a one hour time period. This therapy may be safety repeated every 14 to 21 days. […] Such toxicity may include intravascular hemolysis and lung embolism."}, "[2]": {"experiment": "acute toxicity in animals when administered in organic solvents or in aqueous vehicles", "format": "in vivo", "conditions": "similar doses, may include intravascular hemolysis and lung embolism", "experimental": "as §1"}, "protein kinase C": {"system": "protein kinase C", "conditions": "in vitro and in vivo; cited from earlier work"}, "[3]": {"conditions": "primary amine group of sphingosine; cited from earlier work"}}}
{"smiles": "CCCCCCCCCCCCCCC[C@H](O)[C@@H](N)CO", "note": "[safingol, (2S,3S)-2-amino-1,3-octadecanediol]", "values": [{"measurement": "acute toxicity, administered in the emulsion of the invention", "setting": "[1]", "value": "no acute toxicity"}, {"measurement": "acute toxicity, in organic solvents or in aqueous vehicles", "setting": "[2]", "value": "unacceptable acute toxicity is observed"}, {"measurement": "inhibition of protein kinase C", "setting": "protein kinase C", "value": "potent inhibitors of protein kinase C, both in vitro and in vivo"}]}
{"smiles": "CCCCCCCCCCCCC/C=C/[C@@H](O)[C@@H](N)CO", "note": "[Sphingosine, 4-sphingenine]", "values": [{"measurement": "pKa", "setting": "[3]", "value": "~ 6.5"}]}
